Test results reported in PubChem BioAssay (NCI).
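In this assay, cells in 96-well plates receive the compound at five concentrations for 48 hours. Endpoints are linearly interpolated between the surrounding concentrations. TGI is the concentration that stops growth completely.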

Key:
Experiment in all cases: NCI-60 cell line screen, 48 h
OVCAR-4 ovarian = system: OVCAR-4 ovarian
SK-OV-3 ovarian = system: SK-OV-3 ovarian
HOP-62 NSCLC = system: HOP-62 NSCLC
786-0 renal = system: 786-0 renal
RXF 393 renal = system: RXF 393 renal
HL-60(TB) leukemia = system: HL-60(TB) leukemia
SK-MEL-5 melanoma = system: SK-MEL-5 melanoma
MDA-N = system: MDA-N
NCI-H460 lung = system: NCI-H460 lung
KM12 colon = system: KM12 colon
EKVX NSCLC = system: EKVX NSCLC

Compound	TGI (OVCAR-4 ovarian) [µM]	TGI (SK-OV-3 ovarian) [µM]	TGI (HOP-62 NSCLC) [µM]	TGI (786-0 renal) [µM]	TGI (RXF 393 renal) [µM]	TGI (HL-60(TB) leukemia) [µM]	TGI (SK-MEL-5 melanoma) [µM]	TGI (MDA-N) [µM]	TGI (NCI-H460 lung) [µM]	TGI (KM12 colon) [µM]	TGI (EKVX NSCLC) [µM]
O=C1c2ccccc2C(=O)c2c1c1cc(O)ccc1n2Cc1ccc(Cl)cc1Cl	4.27	13.8	9.88	8.09	9.44	> 100	47.4	38.7	11.8	> 100	
CC(C)Oc1c(O)c2c3c(oc(=O)n3C=CC2c2ccccc2F)c1OC(C)C (stereo unspecified)	> 100	> 100	> 100	> 100	81.5	44.3	34.2	> 100	> 100	> 100	> 100
C[Si](C)(C)C1=C2C(=O)c3ccccc3C(=O)C2=C([Si](C)(C)C)[C@@H]2CCCC[C@H]12	> 100	> 100			> 100	> 100	> 100	> 100	> 100		> 100
CC(C)(C)OC(=O)NCCNC(=O)OCc1ccccc1		> 100	> 100	> 100	> 100		> 100	> 100	> 100	> 100	> 100
CCOC(=O)C1(C/C=C\CBr)CCCCCCC1=O (stereo unspecified)	> 100	> 100	> 100	> 100	> 100	> 100	> 100	> 100		> 100	> 100
COC(=O)C(I(OS(=O)(=O)c1ccc(C)cc1)c1ccccc1)=P(c1ccccc1)(c1ccccc1)c1ccccc1	27	52.4	36.8	28.9	39.2	45.5	26.1	31.5	> 100	34.2	54.5
CCOC(=O)C1C(=O)C=C(c2cc(C)ccc2O)CC1c1cccc(Br)c1 (stereo unspecified)	5.17	43.1	> 100	39.8	33.4	44.2	28.5	21.2	50.6	47.4	67.6
COc1cccc2c(NNc3ccc(Cl)cc3)c3ccc([N+](=O)[O-])cc3nc12	30.9	32.5	24.2	21.2	48	28.8	80.4	> 100	17.2	> 100	33.3
O=C(c1ccccc1)c1cc(-c2ccccc2)c(-c2ccccc2)[nH]c(=O)c1=O	> 100	> 100	> 100	> 100		40.4	> 100	> 100	> 100	> 100	> 100
CN1CCN(c2nc3c(c(=O)n(C)c(=O)n3C)n2C)CC1	> 100	> 100	> 100	> 100	> 100	> 100	> 100	> 100	> 100	> 100	> 100
CC(=O)CC(=O)Nn1c(-c2cccs2)nc2ccc(I)cc2c1=O	> 100	> 100	> 100	> 100	> 100	> 100	> 65.5	> 100	> 100	> 100	> 66.1
O=C1N[C@@H](c2c[nH]c3ccc(Br)cc23)C(=O)N[C@H]1c1c[nH]c2ccc(Br)cc12	24	31.1	27	25.6	43.4	26.6	17.7	20.7	27.8	18.6	29.7
O=S(=O)(CC#CCS(=O)(=O)c1ccccc1)c1ccccc1	3.71	27.5	20.7	2.24	3.38	16.1	10.4	4.16	38.9	28.1	12.1
O=C1c2c(ccc3c2CCCC3)CC12Cc1ccccc1C2	> 100	> 100	> 100	> 100	46.2	38.8	22.3	> 100	> 47.1	59.9	> 95.9
O=S(=O)(N1CCCCN(S(=O)(=O)C(F)(F)F)CCCN(S(=O)(=O)C(F)(F)F)CCCN(S(=O)(=O)C(F)(F)F)CCCCN(S(=O)(=O)C(F)(F)F)CCCN(S(=O)(=O)C(F)(F)F)CCC1)C(F)(F)F	> 100	> 100	> 100	35.3	70.2	> 100	> 100	> 100	> 100	> 100	> 100
Cc1ccc(-c2cn3c(nc4ccccc43)c(C)n2)cc1	> 100	41.5	> 100	> 75.5	> 64.4	> 100	40.3	> 100	> 100	> 100	> 100
COc1cc2c(cc1C)NC(=O)/C2=C/c1c(Cl)n(C)c2ccccc12	25	39.8	29.5	30.7	19.6	8.94	22	5.53	29.1	16.6	28.1
C=C(Cl)C(Cl)(CBr)CCC(Cl)C(C)C (stereo unspecified)	25.4	> 89.5	2.94	4.26	22		42.8	16.3	5.47	6.11	27.9
COc1c(-c2ccc3c(c2)OCO3)oc2cc3c(c(OC)c2c1=O)OCO3	70.1	35.7	34.9	> 100	69.8	4.1	35.5	44.4	28	65.1	57.1
O=C(O)CCCCCNC(=O)CCC(CN(CC(=O)OCc1ccccc1)CC(=O)OCc1ccccc1)N(CC(=O)OCc1ccccc1)CC(=O)OCc1ccccc1 (stereo unspecified)	32.5	26.1	41	34.1	28.9	32.8	32.2	34.8	55.7	36.9	49
